What was measured:
Rattus norvegicus [1] = assay: Compound was tested in vivo for (R)-alpha- methyl-histamine induced dipsogenicity in rats, upon subcutaneous administration; assay type: functional; conditions: sc
Rattus norvegicus [2] = assay: Antagonism of ex vivo binding to rat cortex/hippocampus was determined using [3H]-N-alpha-Methylhistamine, after peroral administration; assay type: functional; conditions: po
[3] = molecular target: Histamine H2 receptor (Cavia porcellus) (UniProt P47747); assay: Antagonistic activity at H2 receptor was assessed against histamine-induced tachycardia in guinea pig isolated atria; assay type: functional
Histamine H2 receptor (Cavia porcellus), sequence (P47747 whole entry): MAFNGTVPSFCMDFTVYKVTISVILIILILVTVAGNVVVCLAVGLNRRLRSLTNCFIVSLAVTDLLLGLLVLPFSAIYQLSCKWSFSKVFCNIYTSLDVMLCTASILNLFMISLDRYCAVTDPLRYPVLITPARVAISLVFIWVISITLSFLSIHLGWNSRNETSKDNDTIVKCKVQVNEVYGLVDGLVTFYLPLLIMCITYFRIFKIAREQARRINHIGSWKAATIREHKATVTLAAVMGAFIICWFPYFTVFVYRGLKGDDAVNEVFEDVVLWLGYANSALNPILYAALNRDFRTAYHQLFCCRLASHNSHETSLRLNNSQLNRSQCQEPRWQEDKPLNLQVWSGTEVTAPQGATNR

[4] = molecular target: Histamine H1 receptor (Cavia porcellus) (UniProt P31389); assay: Antagonistic activity against H1 receptor was determined in histamine induced contractions of guinea pig isolated whole ileum; assay type: functional, tissue-based
Histamine H1 receptor (Cavia porcellus), sequence (P31389 whole entry): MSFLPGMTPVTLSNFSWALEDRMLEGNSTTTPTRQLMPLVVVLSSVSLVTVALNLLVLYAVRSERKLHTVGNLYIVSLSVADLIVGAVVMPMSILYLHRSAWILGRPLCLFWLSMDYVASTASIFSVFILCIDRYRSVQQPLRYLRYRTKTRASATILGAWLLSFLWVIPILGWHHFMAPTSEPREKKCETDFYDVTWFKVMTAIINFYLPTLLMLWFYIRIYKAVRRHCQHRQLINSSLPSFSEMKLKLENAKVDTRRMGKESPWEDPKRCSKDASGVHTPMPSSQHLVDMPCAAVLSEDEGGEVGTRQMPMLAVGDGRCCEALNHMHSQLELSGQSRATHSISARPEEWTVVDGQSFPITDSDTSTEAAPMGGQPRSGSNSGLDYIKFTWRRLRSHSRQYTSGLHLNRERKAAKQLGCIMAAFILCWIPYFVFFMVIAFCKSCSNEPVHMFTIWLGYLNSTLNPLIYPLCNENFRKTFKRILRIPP

Rattus norvegicus [5] = assay: Antagonism of ex vivo binding to rat cortex/hippocampus was determined using [3H]-N-alpha-Methylhistamine, after subcutaneous administration; assay type: functional; conditions: sc
Rattus norvegicus [6] = assay: Compound was tested in vivo for (R)-alpha- methyl-histamine induced dipsogenicity in rats, upon peroral administration; assay type: functional; conditions: po
[7] = molecular target: Histamine H3 receptor (Cavia porcellus) (UniProt Q9JI35); assay: Antagonistic activity at H3 receptor was assessed on guinea-pig longitudinal muscle strips subjected to electrical field stimulation; assay type: functional
Histamine H3 receptor (Cavia porcellus), sequence (Q9JI35 whole entry): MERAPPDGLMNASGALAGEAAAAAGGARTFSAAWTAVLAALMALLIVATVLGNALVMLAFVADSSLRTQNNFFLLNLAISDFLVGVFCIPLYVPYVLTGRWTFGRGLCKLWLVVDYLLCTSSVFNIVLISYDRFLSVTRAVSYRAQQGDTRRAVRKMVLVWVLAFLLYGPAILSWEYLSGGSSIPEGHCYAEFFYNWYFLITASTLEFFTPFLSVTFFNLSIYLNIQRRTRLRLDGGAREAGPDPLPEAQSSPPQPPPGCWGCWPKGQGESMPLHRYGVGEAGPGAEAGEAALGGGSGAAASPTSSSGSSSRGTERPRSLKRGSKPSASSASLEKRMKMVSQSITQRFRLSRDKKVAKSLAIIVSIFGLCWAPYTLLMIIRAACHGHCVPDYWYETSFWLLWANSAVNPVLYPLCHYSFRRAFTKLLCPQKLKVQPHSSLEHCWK

Histamine H3 receptor = Histamine H3 receptor (Rattus norvegicus, UniProt Q9QYN8); assay: Binding affinity against H3 receptor in rat cerebral cortex membranes was evaluated using [3H]N-methyl-histamine as radioligand; assay type: cell membranes, Membrane
Histamine H3 receptor, sequence (Q9QYN8 whole entry): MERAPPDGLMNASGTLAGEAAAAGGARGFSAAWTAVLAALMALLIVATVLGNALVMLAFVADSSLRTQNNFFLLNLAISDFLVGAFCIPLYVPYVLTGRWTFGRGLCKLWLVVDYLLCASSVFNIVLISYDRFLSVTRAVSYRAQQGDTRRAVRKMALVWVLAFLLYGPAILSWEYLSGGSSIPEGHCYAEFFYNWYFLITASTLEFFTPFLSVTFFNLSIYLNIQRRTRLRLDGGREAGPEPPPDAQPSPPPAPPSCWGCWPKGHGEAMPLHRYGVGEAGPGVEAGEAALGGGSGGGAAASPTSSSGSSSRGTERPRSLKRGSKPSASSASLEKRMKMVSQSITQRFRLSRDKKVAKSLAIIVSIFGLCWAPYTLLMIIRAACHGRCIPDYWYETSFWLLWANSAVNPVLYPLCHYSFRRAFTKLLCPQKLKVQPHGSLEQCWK

| Compound | pKB [7] | Ki (Histamine H3 receptor) | also measured |
| --- | --- | --- | --- |
| S=C(NC1CCCCC1)N1CCC(c2cnc[nH]2)CC1 [THIOPERAMIDE] | 8.3 |  | ED50 (Rattus norvegicus [1]): 0.8 mg/kg; ED50 (Rattus norvegicus [2]): 6 mg/kg; pKB [3]: < 5; pKB [4]: < 5; ED50 (Rattus norvegicus [5]): 5.1 mg/kg; ED50 (Rattus norvegicus [6]): 0.8 mg/kg |
| Clc1ccc(Cc2nnc(CCc3c[nH]cn3)s2)cc1 | 7 | 0.1 µM | pKB [3]: 5.8 |
| Clc1ccc(Cc2noc(Cc3c[nH]cn3)n2)cc1 | 7.2 | 0.0251 µM |  |
| Fc1ccc(Cc2noc(CCc3c[nH]cn3)n2)cc1 | 8.4 | 0.01 µM |  |
| Ic1ccc(Cc2noc(CCc3c[nH]cn3)n2)cc1 | 7.1 | 0.00631 µM |  |
| Clc1ccc(Cc2noc(CCCc3cnc[nH]3)n2)cc1 |  | 0.0251 µM |  |
| CS(=O)(=O)c1ccc(Cc2noc(CCc3c[nH]cn3)n2)cc1 |  | 0.316 µM |  |
| C[S+]([O-])c1ccc(Cc2noc(CCc3c[nH]cn3)n2)cc1 (stereo not given) |  | 2.51 µM |  |
| COc1ccc(Cc2noc(CCc3c[nH]cn3)n2)cc1 | 6.5 | 0.0398 µM |  |
| CSc1ccc(Cc2noc(CCc3c[nH]cn3)n2)cc1 |  | 0.0251 µM |  |
| Cn1nc(CCc2c[nH]cn2)nc1Cc1ccc(Cl)cc1 | 5.8 | 0.126 µM |  |
| CS(=O)(=O)Nc1ccc(Cc2noc(CCc3c[nH]cn3)n2)cc1 |  | 1.26 µM |  |
| Clc1ccc(Cc2n[nH]c(CCCc3c[nH]cn3)n2)cc1 | 7.4 | 0.0126 µM | pKB [3]: < 5; pKB [4]: < 5 |
| FC(F)(F)c1ccc(Cc2noc(CCc3c[nH]cn3)n2)cc1 | 8.3 | 0.00794 µM |  |
| Clc1ccc(Cc2noc(CCCc3c[nH]cn3)n2)cc1 | 6.8 |  | pKB [3]: < 5; pKB [4]: < 5 |
| Clc1ccc(Cc2noc(CCc3c[nH]cn3)n2)cc1 [GR-175737] |  |  | ED50 (Rattus norvegicus [1]): 1 mg/kg; ED50 (Rattus norvegicus [2]): 1.2 mg/kg; ED50 (Rattus norvegicus [5]): 1.4 mg/kg |
| Clc1ccc(Cc2nc(CCc3c[nH]cn3)no2)cc1 | 7 | 0.02 µM | pKB [3]: 5.6 |
| c1ccc(-c2ccc(Cc3noc(CCc4c[nH]cn4)n3)cc2)cc1 | 6.6 | 0.0631 µM |  |
| Clc1ccc(Cc2n[nH]c(CCc3c[nH]cn3)n2)cc1 | 5.7 | 0.2 µM |  |
| Clc1ccc(CCc2noc(CCc3c[nH]cn3)n2)cc1 | 7.7 | 0.02 µM | pKB [3]: < 5; pKB [4]: < 5 |
| N=C(NCc1ccc(Cl)cc1)SCCCc1c[nH]cn1 [CLOBENPROPIT] | 9.9 |  | ED50 (Rattus norvegicus [1]): 1.3 mg/kg; ED50 (Rattus norvegicus [2]): > 30 mg/kg; pKB [3]: < 6; pKB [4]: < 6; ED50 (Rattus norvegicus [5]): 10.5 mg/kg; ED50 (Rattus norvegicus [6]): 2.4 mg/kg |
| Clc1ccc(Cc2csc(CCc3c[nH]cn3)n2)cc1 | 7.3 | 0.2 µM |  |
| Clc1ccc(Cc2noc(CCc3c[nH]cn3)n2)cc1Cl | 8 | 0.00316 µM |  |
| Clc1ccc(CCc2noc(Cc3c[nH]cn3)n2)cc1 |  | 0.251 µM |  |

Reference: ChEMBL document CHEMBL1129008, “Novel 1, 2, 4-oxadiazoles as potent and selective histamine H3 receptor antagonists” (Bioorg Med Chem Lett, 1996)
